Assay results from ChEMBL document CHEMBL3872249, “Computer design, synthesis, and bioactivity analyses of drugs like fingolimod used in the treatment of multiple sclerosis” (Bioorg Med Chem, 2017).

Experiments:
Type in all cases: functional
U-118-MG [1] = test: Effect on CRHR1 mRNA expression in human U118MG cells at EC10 by qPCR method relative to beta-actin
U-118-MG [2] = test: Effect on VEGFA mRNA expression in human U118MG cells at EC10 by qPCR method relative to beta-actin
SH-SY5Y [3] = test: Effect on MAPK1 mRNA expression in human SH-SY5Y cells at EC10 by qPCR method relative to beta-actin
U-118-MG [4] = test: Effect on CD4 mRNA expression in human U118MG cells at EC10 by qPCR method relative to beta-actin
SH-SY5Y [5] = test: Effect on CXCL11 mRNA expression in human SH-SY5Y cells at EC10 by qPCR method relative to beta-actin
SK-N-SH [6] = test: Effect on GRM2 mRNA expression in human SK-N-SH cells at EC10 by qPCR method relative to beta-actin
SK-N-SH [7] = test: Effect on LTA mRNA expression in human SK-N-SH cells at EC10 by qPCR method relative to beta-actin
U-118-MG [8] = test: Effect on GRM1 mRNA expression in human U118MG cells at EC10 by qPCR method relative to beta-actin
SK-N-SH [9] = test: Effect on EDN1 mRNA expression in human SK-N-SH cells at EC10 by qPCR method relative to beta-actin
SH-SY5Y [10] = test: Effect on GRM2 mRNA expression in human SH-SY5Y cells at EC10 by qPCR method relative to beta-actin
SH-SY5Y [11] = test: Effect on GCGR mRNA expression in human SH-SY5Y cells at EC10 by qPCR method relative to beta-actin
SH-SY5Y [12] = test: Effect on FASLG mRNA expression in human SH-SY5Y cells at EC10 by qPCR method relative to beta-actin
U-118-MG [13] = test: Effect on AGT mRNA expression in human U118MG cells at EC10 by qPCR method relative to beta-actin
SH-SY5Y [14] = test: Effect on AGT mRNA expression in human SH-SY5Y cells at EC10 by qPCR method relative to beta-actin
U-118-MG [15] = test: Effect on RAF1 mRNA expression in human U118MG cells at EC10 by qPCR method relative to beta-actin
SK-N-SH [16] = test: Effect on AGT mRNA expression in human SK-N-SH cells at EC10 by qPCR method relative to beta-actin
SH-SY5Y [17] = test: Effect on ITGB2 mRNA expression in human SH-SY5Y cells at EC10 by qPCR method relative to beta-actin
SH-SY5Y [18] = test: Effect on CSF1 mRNA expression in human SH-SY5Y cells at EC10 by qPCR method relative to beta-actin
SH-SY5Y [19] = test: Effect on HIF1A mRNA expression in human SH-SY5Y cells at EC10 by qPCR method relative to beta-actin
SK-N-SH [20] = test: Effect on HDAC1 mRNA expression in human SK-N-SH cells at EC10 by qPCR method relative to beta-actin
SH-SY5Y [21] = test: Effect on FOXP3 mRNA expression in human SH-SY5Y cells at EC10 by qPCR method relative to beta-actin
SH-SY5Y [22] = test: Effect on APP mRNA expression in human SH-SY5Y cells at EC10 by qPCR method relative to beta-actin
SK-N-SH [23] = test: Effect on CD44 mRNA expression in human SK-N-SH cells at EC10 by qPCR method relative to beta-actin
SH-SY5Y [24] = test: Effect on RAF1 mRNA expression in human SH-SY5Y cells at EC10 by qPCR method relative to beta-actin
U-118-MG [25] = test: Effect on STAT3 mRNA expression in human U118MG cells at EC10 by qPCR method relative to beta-actin
U-118-MG [26] = test: Effect on MAL mRNA expression in human U118MG cells at EC10 by qPCR method relative to beta-actin
U-118-MG [27] = test: Effect on ADRB2 mRNA expression in human U118MG cells at EC10 by qPCR method relative to beta-actin
SH-SY5Y [28] = test: Effect on MAL mRNA expression in human SH-SY5Y cells at EC10 by qPCR method relative to beta-actin
SK-N-SH [29] = test: Effect on SOD1 mRNA expression in human SK-N-SH cells at EC10 by qPCR method relative to beta-actin
U-118-MG [30] = test: Effect on SOD1 mRNA expression in human U118MG cells at EC10 by qPCR method relative to beta-actin
U-118-MG [31] = test: Effect on S1PR3 mRNA expression in human U118MG cells at EC10 by qPCR method relative to beta-actin
SK-N-SH [32] = test: Effect on TGFB2 mRNA expression in human SK-N-SH cells at EC10 by qPCR method relative to beta-actin
SH-SY5Y [33] = test: Effect on TGFB1 mRNA expression in human SH-SY5Y cells at EC10 by qPCR method relative to beta-actin
SH-SY5Y [34] = test: Effect on TGFB2 mRNA expression in human SH-SY5Y cells at EC10 by qPCR method relative to beta-actin
U-118-MG [35] = test: Effect on TNFRSF1A mRNA expression in human U118MG cells at EC10 by qPCR method relative to beta-actin
SH-SY5Y [36] = test: Effect on PLP1 mRNA expression in human SH-SY5Y cells at EC10 by qPCR method relative to beta-actin
SK-N-SH [37] = test: Effect on PLP1 mRNA expression in human SK-N-SH cells at EC10 by qPCR method relative to beta-actin
U-118-MG [38] = test: Effect on TGFB1 mRNA expression in human U118MG cells at EC10 by qPCR method relative to beta-actin
SK-N-SH [39] = test: Effect on HLA-DRB1 mRNA expression in human SK-N-SH cells at EC10 by qPCR method relative to beta-actin
SH-SY5Y [40] = test: Effect on CXCL9 mRNA expression in human SH-SY5Y cells at EC10 by qPCR method relative to beta-actin

CCCCCCCCn1nnnc1CCC(N)(CO)CO.Cl
fold change (FC) (U-118-MG [1]): 4.2936 | fold change (FC) (U-118-MG [2]): -4.4402 | fold change (FC) (SH-SY5Y [3]): -2.8875 | fold change (FC) (U-118-MG [4]): -3.5323 | fold change (FC) (SH-SY5Y [5]): -5.0428 | fold change (FC) (SK-N-SH [6]): -5.1941 | fold change (FC) (SK-N-SH [7]): -5.1941 | fold change (FC) (U-118-MG [8]): -6.1329 | fold change (FC) (SK-N-SH [9]): 7.7711 | fold change (FC) (SH-SY5Y [10]): -4.9647 | fold change (FC) (SH-SY5Y [11]): -4.2885

CCCCCCCCc1ccc(CCC(N)(CO)CO)cc1 [FINGOLIMOD]
fold change (FC) (SH-SY5Y [12]): -3.0525 | fold change (FC) (U-118-MG [13]): 5.5368 | fold change (FC) (SH-SY5Y [14]): 3.9041 | fold change (FC) (U-118-MG [15]): -3.8172 | fold change (FC) (SK-N-SH [16]): 5.63 | fold change (FC) (SH-SY5Y [17]): -3.9655 | fold change (FC) (SH-SY5Y [18]): -3.1329 | fold change (FC) (SH-SY5Y [19]): -8.3109 | fold change (FC) (SK-N-SH [20]): -6.6778 | fold change (FC) (SH-SY5Y [21]): -5.5022 | fold change (FC) (SH-SY5Y [22]): -10.004 | fold change (FC) (SK-N-SH [23]): -4.3753 | fold change (FC) (SH-SY5Y [24]): -5.0718 | fold change (FC) (U-118-MG [25]): -2.5624 | fold change (FC) (U-118-MG [26]): -3.8671 | fold change (FC) (U-118-MG [27]): -4.9171 | fold change (FC) (SH-SY5Y [28]): -5.5117

CCCCCCCCn1nnnc1-c1ccc(C(O)CC(N)(CO)CO)cc1.Cl (stereo not given)
fold change (FC) (SK-N-SH [29]): -3.3929 | fold change (FC) (U-118-MG [30]): 5.2803 | fold change (FC) (U-118-MG [31]): -4.6278 | fold change (FC) (SK-N-SH [32]): -4.9847 | fold change (FC) (SH-SY5Y [33]): -5.0784 | fold change (FC) (SH-SY5Y [34]): -2.8716 | fold change (FC) (U-118-MG [35]): -3.0144 | fold change (FC) (SH-SY5Y [36]): 3.7859 | fold change (FC) (SK-N-SH [37]): 4.9417 | fold change (FC) (U-118-MG [38]): -5.1404 | fold change (FC) (SK-N-SH [39]): -4.1339 | fold change (FC) (SH-SY5Y [40]): -3.0249
